Data taken from patent publication US5506354A, “Imidazolylpiperazinyl steroids” (The Upjohn Company, priority 1992, dated 1996).
Counter-ions that a name gives are not always drawn.

Legend:
[1] = system: conjugated diene formation; assay: Conjugated Diene Formation Assay (rat brain synaptosomes); format: biochemical; conditions: 100 μM (or less) of drug; active = inhibition by 50% or more
From the text: The formation of conjugated dienes as assayed by Braughler, J. Neurochem., 44, 1282 (1985), Bucher, Fund. Applied Tox., 3, 222 (1983) and Tein, Arch. Biochem. Biophy., 216, 142 (1982) is a standard pharmacological laboratory procedure useful for identifying compounds which inhibit lipid peroxidation. Since lipid peroxidation is involved in the pathophysiology of central nervous system trauma, compounds which inhibit conjugated diene formation are useful in treating the conditions listed below.
44, 1282 (1985). Synaptosomal suspension (10 μl) is added to 1 ml of physiological (normal) saline containing 1% Lubrol PX (Sigma Chemical Co. St. Louis, Mo.), 100 μM hydrogen peroxide and 100 μM (or less) of the drug to be tested prepared in either absolute ethanol or water depending upon solubility. The reaction is started by the rapid addition of 200 μM ferrous ammonium sulfate prepared in argon-purged water. The sample is rapidly mixed and the change in absorbence at 232 nm is followed in a Gifford Response Spectrophotometer equipped with a rapid sampler. Due to the rapidity of the reaction, rapid addition of the iron, rapid mixing and sampling are obligatory to the accuracy of the assay. For best results absorbence readings of one/sec should be started within 5 sec following the addition of iron. The initial linear rate of absorbence change during the first 30 sec of reaction are compared with the rate of a reaction containing all reagents except synaptosomes. The difference in rates is the rate of conjugated diene formation. Rates with drug are compared to rates obtained in the absence of drug and the % inhibition is calculated. A compound that inhibits conjugated diene formation by 50% or more is considered to be "active".

[2] = system: arachidonic acid; assay: Arachidonic Acid Antagonism Assay (AAAA), LD50 of sodium arachidonate; format: in vivo, Charles River male CF-1 mice; conditions: for arachidonic acid antagonism (activity in words): test compound IV 15 min before sodium arachidonate, LD50 outside 95% confidence interval of control
Protocol: Since these metabolites contribute to the pathological problems associated with stroke, spinal trauma and head injury, compounds which antagonize arachidonic acid are useful in treating stroke, spinal trauma and head injury.
While not necessary to determine arachidonic acid antagonism, the above assay has been modified as follows: Charles River male CF-1 mice weighing 18-22 g are treated IV with the test compound dissolved in 1.0% Tween-80 and 0.1% hydrochloric acid in distilled water, 0.2 ml total volume. Fifteen minutes later sodium arachidonate (90% pure) in physiological (normal) saline is injected into the tail vein. The LD50 is measured using the Spearman-Karber method with a log dose interval of 0.05 (N=6). Compounds which elevate the LD50 outside of the 95% confidence interval of the control LD50 are considered to be "active".

[3] = system: mucous secretion; assay: Inhibition of mucous secretion assay of Johnson; conditions: for inhibition of mucous secretion (activity in words): induced mucous secretions; for preferred mucous inhibitors by the test results (in words): test results disclose
From the text: According to this procedure compounds which inhibit or block enhancement of induced mucous secretions when tested are considered to be "active".

[4] = system: angiogenesis; assay: Chick embryo assay of Folkman (inhibition of angiogenesis / tumor growth); format: in vivo; conditions: 50 μg/10 μl in the presence of heparin
Protocol: According to this procedure compounds which are considered to be "active" (i.e. antiangiogenic) give an avascular zone of 4 mm or greater in some embryos when tested at 50 μg/10 μl in the presence of 50 μg/10μ of heparin.

[5] = system: MDA formation; assay: Malonyldialdehyde (MDA) Formation Assay (rat brain synaptosomes); format: biochemical; conditions: 10 min at 37°, pH 7.0; active = 50% or more at 200 μM or less
Protocol: Since lipid peroxidation is involved in the pathophysiology of center nervous system trauma, compounds which inhibit MDA formation are useful in treating the conditions listed below.
While not necessary to determine MDA formation, the above assays have been modified as follows: rat brain synaptosomes are prepared as described in the Example about the conjugated diene assay, except that the final wash of the synaptosomes and final suspension are in physiological (normal) saline in which the pH has been adjusted to 7.0. The synaptosomes are incubated for 10 min at 37° in physiological (normal) saline pH 7.0 (total volume=100 ul) containing; 10 ul synaptosomal suspension, 10% DMSO plus or minus drug, 150 uM Fe^+++ and 50 uM Fe++. The incubation is started by the rapid addition of iron to the otherwise complete reaction. The iron solutions are prepared fresh as ferric chloride and ferrous ammonium sulfate in argon-purged water. Following the 10 min incubation, the reaction is stopped by the addition of 500 ul ice-cold 12% trichloroacetic acid prepared in 0.5N hydrochloric acid. Water (300 ul) is then added along with 100 ul of freshly prepared thiobarbituric acid (3.3% in 0.5N sodium hydroxide) and 10 ul of 5 mM desferrioxamine. The sample is then heated in a boiling water bath for 20 minutes. The samples are cooled and centrifuged for 15 minutes at 1500×g and the absorbence of the supernatant fraction is read at 532 nm. The % inhibition of MDA formation is calculated by dividing the absorbance of sample containing drug by the absorbence of samples incubated without drug. Reaction blanks are samples incubated in the absence of iron. A compound that inhibits MDA formation by 50% or more at a concentration of 200 μM or less is considered "active".

[6] = system: interleukin-1; assay: Inhibition of interleukin-1 induced T cell proliferation; format: cell-based; conditions: for inhibition of interleukin 1 (activity in words): active = greater than 30% at 10^-6 M
From the text: The inhibition of interleukin-1 induced T cell proliferation assay, Proc. Nat. […] Since people with arthritis make excess interleukin 1, compounds which inhibit the activity of interleukin 1 are useful in the treatment of arthritis. According to this procedure compounds which inhibit the activity of interleukin 1 greater that 30% at 10^-6 M are considered to be "active".

Row | SMILES | inhibition of conjugated diene formation (activity in words) [1] | arachidonic acid antagonism (activity in words) [2] | inhibition of mucous secretion (activity in words) [3] | inhibition of MDA formation (activity in words) [5] | inhibition of interleukin 1 (activity in words) [6] | other results
1 | CS(=O)(=O)O.C[C@]12CCC(=O)C=C1CC[C@@H]1C2=CC[C@@]2(C)[C@H]1CC[C@]2(O)C(=O)CN1CCN(c2ccccn2)CC1 [Example 2, 17α-Hydroxy-21-[4-(2-pyridinyl)-1-piperazinyl]pregna-4,9(11)-diene-3,20-dione methanesulfonate] | demonstrate such activity | demonstrate arachidonic acid antagonism | demonstrate such activity | – | – | preferred mucous inhibitors by the test results (in words) [3]: preferred mucous inhibitors; % of Embryos with 4 mm or Greater Avascular Zone [4]: 85%
2 | CCN(CC)c1cc(N2CCN(CC(=O)[C@@]3(O)CC[C@H]4[C@@H]5CCC6=CC(=O)CC[C@]6(C)C5=CC[C@@]43C)CC2)nc(N)n1 [Example 4, 21-[4-[2-Amino-6-(diethylamino)-4-pyrimidinyl]-1-piperazinyl]-17α-hydroxypregna-4,9(11)-diene-3,20-dione] | demonstrate such activity | demonstrate arachidonic acid antagonism | demonstrate such activity | – | – | –
3 | C[C@]12CCC(=O)C=C1CC[C@@H]1C2=CC[C@@]2(C)[C@H]1CC[C@]2(O)C(=O)CN1CCC(O)(c2ccc(C(F)(F)F)cc2)CC1 [Example 5, 17α-Hydroxy-21-[4-hydroxy-4-(4-trifluoromethyl)-phenyl-1-piperidinyl]-pregna-4,9(11)-diene-3,20-dione] | demonstrate such activity | – | – | – | – | –
4 | C[C@H]1C[C@@H]2C(=CC[C@@]3(C)[C@H]2CC[C@]3(O)C(=O)CN2CCN(c3cc(N4CCCC4)nc(N4CCCC4)n3)CC2)[C@@]2(C)C=CC(=O)C=C12 [Example 47, 17α-hydroxy-6α-methyl-21-[4-[2,6-bis(1-pyrrolidinyl)-4-pyrimidinyl]-1-piperazinyl]pregna-1,4,9(11)-triene-3,20-dione (E)-2-butenodioate salt] | demonstrate such activity | demonstrate arachidonic acid antagonism | – | demonstrate such activity | demonstrate inhibition of interleukin 1 | –
5 | C[C@]12CCC(=O)C=C1CC[C@@H]1C2=CC[C@@]2(C)[C@H]1CC[C@]2(O)C(=O)CN1CCN(c2cccc(N3CCCC3)n2)CC1 [Example 62, 17α-hydroxy-21-[4-[6-(1-pyrrolidinyl)-2-pyridinyl]-1-piperazinyl] pregna-4,9(11)-diene-3,20-dione (E)-2-butenedioate (1:1) salt] | – | demonstrate arachidonic acid antagonism | – | demonstrate such activity | – | % of Control LD50 100 mg/kg ([2]; 100 mg/kg, test compound IV): 138%
6 | CS(=O)(=O)O.CS(=O)(=O)O.C[C@@H]1C[C@H]2[C@@H]3CCC4=CC(=O)C=C[C@]4(C)C3=CC[C@]2(C)[C@H]1C(=O)CN1CCN(c2cc(N3CCCC3)nc(N3CCCC3)n2)CC1 [Example 83, 16α-Methyl-21-[4-(2,6-bis(1-pyrrolidinyl)-4-pyrimidinyl]-1-piperazinyl]pregna-1,4,9(11)-triene-3,20-dione dimethane-sulfonate] | demonstrate such activity | – | demonstrate such activity | demonstrate such activity | demonstrate inhibition of interleukin 1 | preferred mucous inhibitors by the test results (in words) [3]: preferred mucous inhibitors; inhibition of angiogenesis (activity in words) [4]: demonstrate inhibition of angiogenesis
7 | C[C@@H]1C[C@H]2[C@@H]3CCC4=CC(=O)C=C[C@]4(C)[C@H]3[C@H](O)C[C@]2(C)[C@H]1C(=O)CN1CCN(c2cc(N3CCCC3)nc(N3CCCC3)n2)CC1 [Example 84, 11α-hydroxy-16α-methyl-21-[4-[2,6-bis(1-pyrrolidinyl)-4-pyrimidinyl]-1-piperazinyl]pregna-1,4-diene 3,20-dione] | demonstrate such activity | – | – | – | demonstrate inhibition of interleukin 1 | –
8 | C[C@@H]1C[C@H]2[C@@H]3CCC4=CC(=O)C=C[C@]4(C)C3=CC[C@]2(C)[C@H]1C(=O)CN1CCN(c2cc(N3CCOCC3)nc(N3CCOCC3)n2)CC1 [Example 86, 16α-methyl-21-[4-[2,6-bis(4-morpholino)-4-pyrimidinyl]-1-piperazinyl]-pregna-1,4,9(11)-triene-3,20-dione] | demonstrate such activity | – | – | demonstrate such activity | demonstrate inhibition of interleukin 1 | % Inhibition at 10^-6 M ([6]; interleukin 1, 10^-6 M): 84%; inhibition of angiogenesis (activity in words) [4]: demonstrate inhibition of angiogenesis
9 | C[C@]12CCC(=O)C=C1CC[C@@H]1C2=CC[C@@]2(C)[C@H]1CC[C@]2(O)C(=O)CN1CCN(c2cc(N3CCOCC3)nc(N3CCOCC3)n2)CC1 [Example 105, 21-[4-(2,6-Bis(4-morpholino)-4-pyrimidinyl)-1-piperazinyl]-17α-hydroxypregna-4,9(11)-diene-3,20-dione dihydrochloride, hydrate] | – | – | demonstrate such activity | – | demonstrate inhibition of interleukin 1 | preferred mucous inhibitors by the test results (in words) [3]: preferred mucous inhibitors; inhibition of angiogenesis (activity in words) [4]: demonstrate inhibition of angiogenesis
10 | C[C@]12C=CC(=O)C=C1CC[C@@H]1C2=CC[C@]2(C)[C@@H](C(=O)CN3CCN(c4cc(N5CCCC5)nc(N5CCCC5)n4)CC3)CC[C@@H]12.Cl.Cl [Example 111, 21-[4-(2,6-Bis(1-pyrrolidinyl)-4-pyrimidinyl)-1-piperazinyl]pregna-1,4,9(11)-triene-3,20-dione dihydrochloride] | demonstrate such activity | – | – | – | – | –
11 | CC(CN1CCN(c2cc(N3CCCC3)nc(N3CCCC3)n2)CC1)[C@H]1CC[C@H]2[C@@H]3CCC4=CC(=O)C=C[C@]4(C)[C@H]3CC[C@]12C.CS(=O)(=O)O.O (some centres unmarked) [Example 112, 21-[4-(2,6-Bis(1-pyrrolidinyl)-4-pyrimidinyl)-1-piperazinyl]-20-methylpregna-1,4-dien-3-one methanesulfonate, hydrate] | demonstrate such activity | – | – | – | – | –
